According to US20100267561A1, “HERBICIDAL PYRIDAZINONE DERIVATIVES” (priority 2007, published 2010):

Legend:
Type in all cases: in vivo
rice (Oryza sativa) = experiment: Test B flooded paddy test plant response
How it was run: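 Step one: raise plants to 2 leaves. Step two: flood pots 3 cm over the soil and apply compound into the water, keeping this depth. Step three: after 13–15 greenhouse days, score visually versus controls, 0–100, where 100 means complete control.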

[1] = test system: downy bromegrass (Bromus tectorum); experiment: Test B pre-/postemergence plant response
How it was run: (§1)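 Preemergence and postemergence (plants 2-18 cm, 1- to 4-leaf stage) applications used test chemicals in a non-phytotoxic solvent with surfactant. Plants were held in a greenhouse 13 to 15 days, then rated visually against controls on a 0-100 scale (0 no effect, 100 complete control).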

[2] = test system: pigweed (Amaranthus retroflexus); experiment: Test B pre-/postemergence plant response
How it was run: as §1

soybean (Glycine max) = experiment: Test B pre-/postemergence plant response
How it was run: as §1

[3] = test system: catchweed bedstraw (Galium aparine); experiment: Test B pre-/postemergence plant response; settings: Preemergence
How it was run: as §1

[4] = test system: common (oilseed) sunflower (Helianthus annuus); experiment: Test B pre-/postemergence plant response; settings: Preemergence
How it was run: as §1

[5] = test system: cocklebur (Xanthium strumarium); experiment: Test B pre-/postemergence plant response
How it was run: as §1

[6] = test system: green foxtail (Setaria viridis); experiment: Test B pre-/postemergence plant response
How it was run: as §1

[7] = test system: goosegrass (Eleusine indica); experiment: Test B pre-/postemergence plant response
How it was run: as §1

[8] = test system: woolly cupgrass (Eriochloa villosa); experiment: Test B pre-/postemergence plant response
How it was run: as §1

[9] = test system: wheat (Triticum aestivum); experiment: Test B pre-/postemergence plant response
How it was run: as §1

[10] = test system: large crabgrass (Digitaria sanguinalis); experiment: Test B pre-/postemergence plant response
How it was run: as §1

[11] = test system: velvetleaf (Abutilon theophrasti); experiment: Test B pre-/postemergence plant response
How it was run: as §1

[12] = 8 g ai/ha, postemergence, 0-100 scale
[13] = 16 g ai/ha, postemergence, 0-100 scale
[14] = Postemergence, 31 g ai/ha, scale 0 to 100
[15] = Postemergence, 62 g ai/ha, scale 0 to 100, 0 no effect, 100 complete control
[16] = Preemergence, 8 g ai/ha, scale 0 to 100 (0 no effect, 100 complete control)
[17] = Preemergence, 31 g ai/ha, scale 0 to 100 (0 no effect, 100 complete control)
[18] = Preemergence, 62 g ai/ha, 0 to 100 scale, 0 no effect, 100 complete control
[19] = Preemergence, 16 g ai/ha, scale 0 to 100
[20] = 8 g ai/ha, scale 0 to 100 (0 no effect, 100 complete control)
[21] = 31 g ai/ha, scale 0 to 100 (0 no effect, 100 complete control)
[22] = 62 g ai/ha, 0 to 100 scale, 0 no effect, 100 complete control

## CCc1c(C)c(-c2ccc(Br)cc2)nn1-c1c(O)cnn(C)c1=O [Compound 83]
Rice (Oryza sativa); Flood (flooded paddy test), 125 g ai/ha, scale 0 to 100, 0 no effect, 100 complete control
  Plant response rating, Rice: 0
Rice (Oryza sativa); Flood (flooded paddy test), 250 g ai/ha, scale 0 to 100, 0 no effect, 100 complete control
  Plant response rating, Rice: 0
Rice (Oryza sativa); Flood, 31 g ai/ha, scale 0 to 100
  Plant response rating, Rice: 0
Rice (Oryza sativa); Flood, 62 g ai/ha, scale 0 to 100
  Plant response rating, Rice: 0
[1]; [12]
  Bromegrass, Downy plant response rating: 10
[1]; [13]
  Bromegrass, Downy plant response rating: 55
[1]; [14]
  Plant response rating, Bromegrass, Downy: 75
[1]; [15]
  Plant response rating, Bromegrass, Downy: 85
[1]; [16]
  Bromegrass, Downy plant response rating: 0
[1]; [17]
  Plant response rating, Bromegrass, Downy: 20
[1]; [18]
  Plant response rating, Bromegrass, Downy: 30
[1]; [19]
  Bromegrass, Downy plant response rating: 0
[2]; [12]
  Pigweed plant response rating: 0
[2]; [13]
  Pigweed plant response rating: 0
[2]; [14]
  Plant response rating, Pigweed: 0
[2]; [15]
  Plant response rating, Pigweed: 20
[2]; [16]
  Pigweed plant response rating: 0
[2]; [17]
  Plant response rating, Pigweed: 0
[2]; [18]
  Plant response rating, Pigweed: 0
[2]; [19]
  Pigweed plant response rating: 0
Soybean (Glycine max); [12]
  Soybean plant response rating: 0
Soybean (Glycine max); [13]
  Soybean plant response rating: 0
Soybean (Glycine max); [14]
  Plant response rating, Soybean: 0
Soybean (Glycine max); [15]
  Plant response rating, Soybean: 0
Soybean (Glycine max); [16]
  Soybean plant response rating: 0
Soybean (Glycine max); [17]
  Plant response rating, Soybean: 0
Soybean (Glycine max); [18]
  Plant response rating, Soybean: 0
Soybean (Glycine max); [19]
  Soybean plant response rating: 0
[3]; [20]
  Galium plant response rating: 0
[3]; [21]
  Plant response rating, Galium: 0
[3]; [22]
  Plant response rating, Galium: 0
[3]; 16 g ai/ha, scale 0 to 100
  Galium plant response rating: 0
[4]; [20]
  Sunflower plant response rating: 0
[4]; [21]
  Plant response rating, Sunflower: 0
[4]; [22]
  Plant response rating, Sunflower: 0
[4]; 16 g ai/ha, scale 0 to 100
  Sunflower plant response rating: 0
[5]; [12]
  Cocklebur plant response rating: 0
[5]; [13]
  Cocklebur plant response rating: 0
[5]; [14]
  Plant response rating, Cocklebur: 0
[5]; [15]
  Plant response rating, Cocklebur: 0
[5]; [16]
  Cocklebur plant response rating: 0
[5]; [17]
  Plant response rating, Cocklebur: 0
[5]; [18]
  Plant response rating, Cocklebur: 0
[5]; [19]
  Cocklebur plant response rating: 0
[6]; [12]
  Foxtail, Green plant response rating: 60
[6]; [13]
  Foxtail, Green plant response rating: 65
[6]; [14]
  Plant response rating, Foxtail, Green: 98
[6]; [15]
  Plant response rating, Foxtail, Green: 100
[6]; [16]
  Foxtail, Green plant response rating: 40
[6]; [17]
  Plant response rating, Foxtail, Green: 80
[6]; [18]
  Plant response rating, Foxtail, Green: 100
[6]; [19]
  Foxtail, Green plant response rating: 70
[7]; [12]
  Goosegrass plant response rating: 0
[7]; [13]
  Goosegrass plant response rating: 45
[7]; [14]
  Plant response rating, Goosegrass: 55
[7]; [15]
  Plant response rating, Goosegrass: 60
[7]; [16]
  Goosegrass plant response rating: 55
[7]; [17]
  Plant response rating, Goosegrass: 95
[7]; [18]
  Plant response rating, Goosegrass: 100
[7]; [19]
  Goosegrass plant response rating: 80
[8]; [12]
  Cupgrass, Woolly plant response rating: 65
[8]; [13]
  Cupgrass, Woolly plant response rating: 95
[8]; [14]
  Plant response rating, Cupgrass, Woolly: 98
[8]; [15]
  Plant response rating, Cupgrass, Woolly: 100
[8]; [16]
  Cupgrass, Woolly plant response rating: 65
[8]; [17]
  Plant response rating, Cupgrass, Woolly: 100
[8]; [18]
  Plant response rating, Cupgrass, Woolly: 100
[8]; [19]
  Cupgrass, Woolly plant response rating: 90
[9]; [12]
  Wheat plant response rating: 40
[9]; [13]
  Wheat plant response rating: 55
[9]; [14]
  Plant response rating, Wheat: 90
[9]; [15]
  Plant response rating, Wheat: 95
[9]; [16]
  Wheat plant response rating: 0
[9]; [17]
  Plant response rating, Wheat: 0
[9]; [18]
  Plant response rating, Wheat: 20
[9]; [19]
  Wheat plant response rating: 0
[10]; [12]
  Crabgrass, Large plant response rating: 80
[10]; [13]
  Crabgrass, Large plant response rating: 95
[10]; [14]
  Plant response rating, Crabgrass, Large: 100
[10]; [15]
  Plant response rating, Crabgrass, Large: 100
[10]; [16]
  Crabgrass, Large plant response rating: 0
[10]; [17]
  Plant response rating, Crabgrass, Large: 85
[10]; [18]
  Plant response rating, Crabgrass, Large: 100
[10]; [19]
  Crabgrass, Large plant response rating: 35
[11]; [12]
  Velvetleaf plant response rating: 0
[11]; [13]
  Velvetleaf plant response rating: 0
[11]; [14]
  Plant response rating, Velvetleaf: 0
[11]; [15]
  Plant response rating, Velvetleaf: 20
[11]; [16]
  Velvetleaf plant response rating: 0
[11]; [17]
  Plant response rating, Velvetleaf: 0
[11]; [18]
  Plant response rating, Velvetleaf: 0
[11]; [19]
  Velvetleaf plant response rating: 0
